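Step 1: Grow cells in 96-well plates. Step 2: Expose to compound for 48 hours at 5 concentrations. Step 3: Interpolate endpoints linearly; if unreached, use highest concentration. GI50 is the concentration that inhibits growth by half.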 The source made the active and inactive calls. Cut-off read from the data, not from the text of the source: active = GI50 up to about 1.1 µM and inactive = higher.
Legend:
Experiment in all cases: NCI-60 cell line screen, 48 h
UO-31 = test system: UO-31
DMS-114 = test system: DMS-114
HOP-92 = test system: HOP-92
Malme-3M = test system: Malme-3M
EKVX = test system: EKVX
MOLT-4 = test system: MOLT-4
SN12C = test system: SN12C
K562 = test system: K562
HL-60 = test system: HL-60
HCT-116 = test system: HCT-116
SK-OV-3 = test system: SK-OV-3
786-0 = test system: 786-0
NCI-H460 = test system: NCI-H460
DLD-1 = test system: DLD-1
CCRF-CEM = test system: CCRF-CEM
OVCAR-8 = test system: OVCAR-8
OVCAR-5 = test system: OVCAR-5
LXFL 529 = test system: LXFL 529
CAKI-1 = test system: CAKI-1
SK-MEL-5 = test system: SK-MEL-5
A549 = test system: A549
SK-MEL-28 = test system: SK-MEL-28
NCI-H522 = test system: NCI-H522
HOP-18 = test system: HOP-18
SNB-19 = test system: SNB-19
HOP-62 = test system: HOP-62
SNB-75 = test system: SNB-75
U-251 = test system: U-251
SK-MEL-2 = test system: SK-MEL-2
DMS-273 = test system: DMS-273
A498 = test system: A498
M14 = test system: M14
UACC-62 = test system: UACC-62
RPMI-8226 = test system: RPMI-8226
HCC 2998 = test system: HCC 2998
RXF 631 = test system: RXF 631
OVCAR-4 = test system: OVCAR-4
SNB-78 = test system: SNB-78
ACHN = test system: ACHN
M19-MEL = test system: M19-MEL
TK-10 = test system: TK-10
UACC-257 = test system: UACC-257
NCI-H226 = test system: NCI-H226
OVCAR-3 = test system: OVCAR-3
SF-539 = test system: SF-539
KM-20L2 = test system: KM-20L2
SF-295 = test system: SF-295
IGROV-1 = test system: IGROV-1
HT-29 = test system: HT-29
NCI-H23 = test system: NCI-H23
XF498 = test system: XF498
SW-620 = test system: SW-620
SF-268 = test system: SF-268
HCT-15 = test system: HCT-15
KM12 = test system: KM12
COLO 205 = test system: COLO 205

Measured: GI50

Nn1c(-c2ccccc2)nc2ccc(Br)cc2c1=O
40.8 µM: HCT-15
inactive: UO-31 24.4 µM | DMS-114 31.8 µM | HOP-92 12.8 µM | Malme-3M 15.1 µM | EKVX 31.9 µM | MOLT-4 17.9 µM | SN12C 42.7 µM | K562 29.3 µM | HL-60 15.6 µM | HCT-116 35.3 µM | SK-OV-3 61.5 µM | 786-0 47.2 µM | NCI-H460 61.4 µM | DLD-1 35.3 µM | CCRF-CEM 20.2 µM | OVCAR-8 35.4 µM | OVCAR-5 > 100 µM | LXFL 529 34 µM | CAKI-1 38.5 µM | SK-MEL-5 53.1 µM | A549 > 100 µM | SK-MEL-28 > 100 µM | NCI-H522 33.7 µM | HOP-18 17.5 µM | SNB-19 95.3 µM | HOP-62 > 10 µM | SNB-75 > 100 µM | U-251 41.4 µM | SK-MEL-2 57.1 µM | DMS-273 40.2 µM | A498 70.5 µM | M14 54.1 µM | UACC-62 45.9 µM | RPMI-8226 30.9 µM | HCC 2998 62.7 µM | RXF 631 59 µM | OVCAR-4 28.6 µM | SNB-78 85.7 µM | ACHN 34.8 µM | M19-MEL 89.5 µM | TK-10 > 100 µM | UACC-257 > 100 µM | NCI-H226 57.5 µM | OVCAR-3 24 µM | SF-539 53.8 µM | KM-20L2 > 100 µM | SF-295 58.1 µM | IGROV-1 44.8 µM | HT-29 61 µM | NCI-H23 81.5 µM | XF498 13.7 µM | SW-620 46.6 µM | SF-268 30.7 µM | KM12 86.1 µM | COLO 205 32.1 µM
